Source: patent US10159659B2, “Predicting response to cancer therapy” (BIONOMICS LIMITED, priority 2014, dated 2018)

Experiments:
[1] = test system: Metastatic Clear Cell Renal Cell Carcinoma; test: Disruptor-1 trial: BNC105P in combination with everolimus, progression free survival; format: in vivo, human; details: all patients; 10 mg oral everolimus daily, with or without 16 mg/m^2 BNC105P i.v. on days 1 and 8 of 21 day cycle; FIG. 2
From the text: A control group of patients received everolimus alone.
The medical histories of patients were obtained prior to commencement of the study.
All patients in the study were followed for disease progression and survival. Prior to commencing treatment, patients enrolled in the study were subject to disease assessment including: CT of chest, abdomen and pelvis; CT of the head or brain MRI; bone scan; echocardiography (ECHO) or multiple gated acquisition scan (MUGA). At every 3 cycles of treatment, CT scans of chest, abdomen and pelvis, and bone scans were performed to determine disease progression.
Time to disease progression was determined as a measurement from the start of the treatment until the criteria for disease progression is met (or death occurs), taking as reference the smallest measurements recorded since the treatment started. […]

[2] = test system: tubulin; test: Tubulin polymerisation inhibition; format: biochemical
[3] = test system: tumour endothelial cells (activated) and normal endothelial cells (quiescent); test: Potency against activated versus quiescent endothelial cells; format: cell-based
[4] = Maximum tolerated dose of BNC105P by intravenous infusion in patients; format: in vivo, human; details: intravenous infusion over 10 minutes, days 1 and 8 of 21 day cycle, with 10 mg oral everolimus daily
Method: Patients in the BNC105P in combination with everolimus study group (the “combination arm”) were administered 10 mg oral everolimus daily. On days 1 and 8 of the 21 day cycle period, the patients were administered 16 mg/m^2 BNC105P, which had been determined to be the maximum tolerated dose, by intravenous infusion over a 10 minute period (FIG. 1). Treatment was continued until disease progressed, intolerable toxicity became apparent, or until consent was withdrawn. A control group of patients were administered with everolimus alone.

CO[C@H]1C[C@@H]2CC[C@@H](C)[C@@](O)(O2)C(=O)C(=O)N2CCCC[C@H]2C(=O)O[C@H]([C@H](C)C[C@@H]2CC[C@@H](OCCO)[C@H](OC)C2)CC(=O)[C@H](C)/C=C(\C)[C@@H](O)[C@@H](OC)C(=O)[C@H](C)C[C@H](C)/C=C/C=C/C=C/1C [everolimus]
patients free of disease progression at 6 months [1]: 20 patients

COc1cc(C(=O)c2c(C)oc3c(O)c(OC)ccc23)cc(OC)c1OC [formula III, 2-methyl-7-hydroxy-3-(3,4,5-trimethoxybenzoyl)-6-methoxybenzofuran]
tubulin polymerisation inhibition (in words) [2]: potent tubulin polymerisation inhibitors
selectivity between activated (tumour) and quiescent (normal) endothelial cells (in words) [3]: show selectivity towards tumor endothelial cells (activated) over normal endothelial cells (quiescent)

COc1ccc(/C=C\c2cc(OC)c(OC)c(OC)c2)cc1O [Combretastatin A4, reference compound]
selectivity between activated (tumour) and quiescent (normal) endothelial cells (in words) [3]: equally potent against quiescent and activated endothelial cells

COc1cc(C(=O)c2c(C)oc3c(OP(=O)([O-])[O-])c(OC)ccc23)cc(OC)c1OC.[Na+].[Na+] [BNC105P, disodium [6-methoxy-2-methyl-3-(3,4,5-trimethoxybenzoyl)-1-benzofuran-7-yl] phosphate]
maximum tolerated dose [4]: 16 mg/m^2
